Measurements: PMC8294059, “Identification and Immune Assessment of T Cell Epitopes in Five Plasmodium falciparum Blood Stage Antigens to Facilitate Vaccine Candidate Selection and Optimization” (Frontiers in Immunology, 2021)
Where a SMILES comes first, the peptide text is derived from it.

Target: HLA-A*0201 (Homo sapiens, UniProt P04439, D140Y/D185E/D98H/E176V/E277Q/G131W/G231S/I119V/I121R/I166T/I218V/L300P/L318F/N151K/N90K/P208A/P217A/Q86G/Q94H/R138H/R169H/T345S)
Test: In vitro class I HLA binding assay (fluorescence polarization competition)
Details: allele A*0201; fluorescence polarization competition
Outline: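 Cell-free competition assay: HLA heat-treated 53°C for 15 min to strip endogenous peptides, then mixed with fluorescent high-affinity control peptide and test peptides for 72 h to equilibrium. Displacement read by fluorescence polarization as percent inhibition; IC50 derived from a concentration range.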

Compound | IC50 (nM), in vitro HLA binding affinity
KRASHTTPV [AMA1_607] | Non-binder

Same assay, conditions: allele A*0201; fluorescence polarization competition; read-out: IC50 (nM), in vitro HLA binding affinity

Compound | IC50
CC[C@H](C)[C@H](NC(=O)[C@H](Cc1c[nH]c2ccccc12)NC(=O)[C@H](CO)NC(=O)[C@H](CC(=O)O)NC(=O)[C@H](CCCCN)NC(=O)[C@@H](NC(=O)[C@@H](N)CCCCN)C(C)C)C(=O)N[C@H](C(=O)N[C@@H](CC(C)C)C(=O)O)[C@@H](C)O [CYRPA_082] (H-KVKDSWITL-OH) | 4010 nM
CC[C@H](C)[C@H](NC(=O)[C@H](CS)NC(=O)[C@@H](NC(=O)CNC(=O)[C@H](CC(N)=O)NC(=O)[C@H](CCC(=O)O)NC(=O)[C@H](CC(C)C)NC(=O)[C@@H](NC(=O)[C@@H](N)Cc1ccccc1)C(C)C)C(C)C)C(=O)O [RIPR_0745] (H-FVLENGVCI-OH) | 4170 nM

Target: HLA-A*0301 (Homo sapiens, UniProt P04439)
Test: biochemical
Type: binding
Details: not given
Method: (§1) A cell-free class I HLA binding assay that allows for in vitro quantification of peptide-HLA binding affinity in a competition format was used. In this assay, a fluorescently labeled, high binding, control peptide is loaded onto 384-well ½-area plates along with unlabeled experimental peptides. To remove endogenous peptides and render the HLA A and B molecules receptive to binding, HLA is heated at 53°C for 15 minutes and immediately added to the assay. The mixture is then allowed to stand for three days. Once the mixture has reached steady equilibrium (at 72 hours), displacement of the high binding control peptide is measured through fluorescence polarization. Binding of experimental peptides is expressed as the percent inhibition of the labeled control peptide (experimental fluorescence / control fluorescence, multiplied by 100). The percent inhibition values for each experimental peptide (across a range of molar concentrations) are used to calculate the concentration which inhibits 50% of the labeled control peptide’s specific binding. This value is referred to as the peptide’s IC50.

Compound | IC50
CC[C@H](C)[C@H](NC(=O)[C@@H](N)Cc1ccccc1)C(=O)N[C@@H](CO)C(=O)N[C@@H](CC(=O)O)C(=O)N[C@@H](CC(=O)O)C(=O)N[C@@H](CCCCN)C(=O)N[C@@H](CC(=O)O)C(=O)N[C@@H](CO)C(=O)N[C@@H](CC(C)C)C(=O)N[C@@H](CCCCN)C(=O)O [AMA1_480K] (H-FISDDKDSLK-OH) | 697000 nM

Same assay, conditions: allele A*0301; cell-free competition, fluorescence polarization at 72 hours; Non-binder = no dose-dependent inhibition; read-out: IC50

Compound | IC50
CC[C@H](C)[C@H](NC(=O)[C@H](Cc1ccccc1)NC(=O)[C@@H](NC(=O)[C@H](Cc1ccccc1)NC(=O)[C@@H](NC(=O)[C@@H](N)CCCCN)[C@@H](C)CC)[C@@H](C)O)C(=O)N[C@@H](CCC(=O)O)C(=O)N[C@@H](CC(N)=O)C(=O)N[C@@H](CCCCN)C(=O)O [EBA175_0058] (H-KIFTFIENK-OH) | 467 nM
CC[C@H](C)[C@H](N)C(=O)N[C@@H](CC(C)C)C(=O)N[C@@H](CC(N)=O)C(=O)N[C@@H](CC(N)=O)C(=O)N[C@@H](CO)C(=O)N[C@@H](CCCCN)C(=O)N[C@@H](Cc1ccccc1)C(=O)N[C@@H](CC(N)=O)C(=O)N[C@@H](CCCCN)C(=O)O [EBA175_0069] (H-ILNNSKFNK-OH) | 420 nM
CC[C@H](C)[C@H](NC(=O)[C@H](Cc1c[nH]c2ccccc12)NC(=O)[C@H](CCC(=O)O)NC(=O)[C@H](CCCCN)NC(=O)[C@H](Cc1ccc(O)cc1)NC(=O)[C@H](CO)NC(=O)[C@@H](N)CC(N)=O)C(=O)N[C@@H](CO)C(=O)N[C@@H](CCCCN)C(=O)N[C@@H](CCCCN)C(=O)O [EBA175_0667] (H-NSYKEWISKK-OH) | 7370 nM
CC[C@H](C)[C@H](NC(=O)[C@H](CC(=O)O)NC(=O)[C@@H](NC(=O)[C@H](Cc1c[nH]cn1)NC(=O)[C@H](CO)NC(=O)[C@H](CC(C)C)NC(=O)[C@@H](N)CCCNC(=N)N)[C@@H](C)O)C(=O)N[C@@H](Cc1c[nH]cn1)C(=O)N[C@@H](CCCCN)C(=O)O [EBA175_1214] (H-RLSHTDIHK-OH) | 1740 nM

Same assay, conditions: allele A*0301; fluorescence polarization competition; read-out: IC50 (nM), in vitro HLA binding affinity

Compound | IC50
CC(C)C[C@H](NC(=O)[C@H](Cc1ccc(O)cc1)NC(=O)[C@H](CCC(N)=O)NC(=O)[C@H](CC(N)=O)NC(=O)CNC(=O)[C@@H](NC(=O)[C@H](C)NC(=O)[C@@H](NC(=O)[C@@H]1CCCN1)C(C)C)[C@@H](C)O)C(=O)N[C@@H](CCCCN)C(=O)O [AMA1_168] (H-PVATGNQYLK-OH) | 328000 nM
CC(C)C[C@H](NC(=O)[C@H](Cc1ccccc1)NC(=O)[C@H](C)NC(=O)[C@@H](N)CO)C(=O)N1CCC[C@H]1C(=O)N[C@H](C(=O)NCC(=O)N[C@@H](C)C(=O)N[C@@H](Cc1ccccc1)C(=O)N[C@@H](CCCCN)C(=O)O)[C@@H](C)O [AMA1_377] (H-SAFLPTGAFK-OH) | 345 nM
CC[C@H](C)[C@H](NC(=O)[C@@H](N)Cc1c[nH]cn1)C(=O)N[C@@H](Cc1ccc(O)cc1)C(=O)N[C@H](C(=O)N[C@@H](CCC(N)=O)C(=O)N[C@@H](CCCCN)C(=O)N[C@@H](CCCCN)C(=O)N[C@H](C(=O)N[C@@H](CCCCN)C(=O)O)C(C)C)C(C)C [CYRPA_076] (H-HIYVQKKVK-OH) | 897 nM
CC(C)C[C@H](NC(=O)[C@@H]1CCCN1C(=O)[C@H](CC(C)C)NC(=O)[C@H](CO)NC(=O)[C@@H](NC(=O)[C@H](Cc1ccc(O)cc1)NC(=O)[C@H](CO)NC(=O)[C@H](CO)NC(=O)[C@@H](N)CC(C)C)C(C)C)C(=O)N[C@@H](CCCCN)C(=O)O [CYRPA_161] (H-LSSYVSLPLK-OH) | 654 nM
CC[C@H](C)[C@H](NC(=O)[C@@H](N)CC(C)C)C(=O)N[C@@H](CS)C(=O)NCC(=O)N[C@H](C(=O)N[C@@H](CO)C(=O)N1CCC[C@H]1C(=O)N[C@@H](Cc1ccc(O)cc1)C(=O)N[C@@H](CCCCN)C(=O)O)C(C)C [CYRPA_178] (H-LICGVSPYK-OH) | 419 nM
CC[C@H](C)[C@H](NC(=O)[C@H](CO)NC(=O)[C@H](CC(N)=O)NC(=O)[C@H](Cc1ccc(O)cc1)NC(=O)[C@H](CO)NC(=O)[C@H](CC(C)C)NC(=O)[C@@H](N)Cc1c[nH]cn1)C(=O)N[C@@H](Cc1ccc(O)cc1)C(=O)N[C@@H](Cc1c[nH]cn1)C(=O)N[C@@H](CCCCN)C(=O)O [RH5_187] (H-HLSYNSIYHK-OH) | 44200 nM
CC[C@H](C)[C@H](NC(=O)[C@H](CO)NC(=O)[C@H](CC(N)=O)NC(=O)[C@H](Cc1ccc(O)cc1)NC(=O)[C@H](CO)NC(=O)[C@@H](N)CC(C)C)C(=O)N[C@@H](Cc1ccc(O)cc1)C(=O)N[C@@H](Cc1c[nH]cn1)C(=O)N[C@@H](CCCCN)C(=O)O [RH5_188] (H-LSYNSIYHK-OH) | 3070 nM
CC[C@H](C)[C@H](NC(=O)[C@H](CC(=O)O)NC(=O)[C@H](CC(N)=O)NC(=O)[C@H](CS)NC(=O)[C@H](CCCCN)NC(=O)[C@H](CO)NC(=O)[C@H](CCCCN)NC(=O)[C@@H](NC(=O)[C@@H](N)CCCCN)C(C)C)C(=O)N[C@@H](CCCCN)C(=O)O [RH5_219] (H-KVKSKCNDIK-OH) | 39300 nM
CC(C)C[C@H](NC(=O)[C@H](CC(N)=O)NC(=O)[C@@H](NC(=O)[C@H](CC(C)C)NC(=O)[C@H](CC(C)C)NC(=O)[C@@H](N)CC(C)C)[C@@H](C)O)C(=O)N[C@@H](CC(N)=O)C(=O)N[C@@H](CCCCN)C(=O)N[C@@H](CCCCN)C(=O)O [RH5_392] (H-LLLTNLNKK-OH) | 14100 nM
CC[C@H](C)[C@H](NC(=O)[C@H](Cc1ccc(O)cc1)NC(=O)[C@@H](NC(=O)[C@H](Cc1ccc(O)cc1)NC(=O)[C@H](CO)NC(=O)CN)[C@@H](C)CC)C(=O)N[C@@H](CC(=O)O)C(=O)N[C@H](C(=O)N[C@H](C(=O)N[C@@H](CCCCN)C(=O)O)[C@@H](C)CC)[C@@H](C)O [RH5_402] (H-GSYIYIDTIK-OH) | 70800 nM
CC[C@H](C)[C@H](NC(=O)[C@H](CCCCN)NC(=O)[C@@H](NC(=O)[C@@H](N)Cc1c[nH]cn1)[C@@H](C)O)C(=O)N[C@H](C(=O)N[C@@H](CC(N)=O)C(=O)N[C@@H](CC(=O)O)C(=O)N[C@@H](CCCCN)C(=O)N[C@H](C(=O)N[C@@H](CCCCN)C(=O)O)[C@@H](C)O)[C@@H](C)CC [RH5_427] (H-HTKIINDKTK-OH) | 73000 nM
CC[C@H](C)[C@H](NC(=O)[C@H](CC(N)=O)NC(=O)[C@H](CC(C)C)NC(=O)[C@@H](N)CCCCN)C(=O)N[C@@H](Cc1c[nH]c2ccccc12)C(=O)N[C@@H](CCCNC(=N)N)C(=O)N[C@H](C(=O)N[C@@H](Cc1ccccc1)C(=O)N[C@@H](CCC(N)=O)C(=O)N[C@@H](CCCCN)C(=O)O)[C@@H](C)O [RH5_443] (H-KLNIWRTFQK-OH) | 2500 nM
CC(C)C[C@H](NC(=O)[C@H](CC(C)C)NC(=O)[C@H](CCC(=O)O)NC(=O)[C@H](CC(=O)O)NC(=O)[C@H](CCCCN)NC(=O)[C@H](CCC(N)=O)NC(=O)[C@H](Cc1ccccc1)NC(=O)[C@@H](NC(=O)[C@@H](N)CCCNC(=N)N)[C@@H](C)O)C(=O)N[C@@H](CCCCN)C(=O)O [RH5_448] (H-RTFQKDELLK-OH) | 24200 nM
C[C@H](N)C(=O)N[C@H](C(=O)N[C@@H](CS)C(=O)N[C@@H](CCCCN)C(=O)N[C@@H](Cc1ccc(O)cc1)C(=O)NCC(=O)N[C@@H](Cc1ccccc1)C(=O)N[C@@H](CC(N)=O)C(=O)N[C@@H](CCCCN)C(=O)O)[C@@H](C)O [RIPR_0266] (H-ATCKYGFNK-OH) | 4750 nM
CC(C)C[C@H](NC(=O)[C@H](CO)NC(=O)[C@H](CCC(=O)O)NC(=O)[C@@H](NC(=O)[C@@H](NC(=O)[C@H](Cc1ccc(O)cc1)NC(=O)[C@H](CCCCN)NC(=O)[C@H](CC(C)C)NC(=O)[C@@H](N)CCCCN)C(C)C)[C@@H](C)O)C(=O)N[C@@H](CCCCN)C(=O)O [RIPR_0425] (H-KLKYVTESLK-OH) | 3340 nM

Target: HLA-B*0702 (Homo sapiens, UniProt P01889)
Test: In vitro class I HLA binding assay (fluorescence polarization competition)
Details: allele B*0702; fluorescence polarization competition
Method: as §1, with “Once the mixture has reached steady equilibrium (at 72 hours), displacement of the high binding control peptide is measured through fluorescence polarization.” left out

Compound | IC50 (nM), in vitro HLA binding affinity
KRASHTTPV [AMA1_607] | Non-binder

Same assay, conditions: allele B*0702; fluorescence polarization competition; read-out: IC50 (nM), in vitro HLA binding affinity

Compound | IC50
CC[C@H](C)[C@H](NC(=O)[C@H](Cc1c[nH]c2ccccc12)NC(=O)[C@H](CO)NC(=O)[C@H](CC(=O)O)NC(=O)[C@H](CCCCN)NC(=O)[C@@H](NC(=O)[C@@H](N)CCCCN)C(C)C)C(=O)N[C@H](C(=O)N[C@@H](CC(C)C)C(=O)O)[C@@H](C)O [CYRPA_082] (H-KVKDSWITL-OH) | 458 nM
CC[C@H](C)[C@H](NC(=O)[C@H](CS)NC(=O)[C@@H](NC(=O)CNC(=O)[C@H](CC(N)=O)NC(=O)[C@H](CCC(=O)O)NC(=O)[C@H](CC(C)C)NC(=O)[C@@H](NC(=O)[C@@H](N)Cc1ccccc1)C(C)C)C(C)C)C(=O)O [RIPR_0745] (H-FVLENGVCI-OH) | 284000 nM
